# “Also recorded” adds a separate entry of the source. Peptide text beside a SMILES is read from it.
# Experiments:
# [1] = system: male runners; experiment: Dynavision D2 visual, motor and physical reaction time to a visual stimulus; type: in vivo, human; settings: between groups
# Experimental: The testing protocol is depicted in FIG. 1. Data collection occurred on four separate occasions. Each session required participants to perform a 60-min run at 75% of their previously measured VO2max. Following this run, all participants performed a run at 90% of their VO2max until volitional exhaustion. All participants performed their first trial (DHY) without any rehydration. During this session the total weight lost during the trial was determined. The fluid loss that occurred during this session was then used to determine the participant's swear rate (L·hr^−1). To continue in the study, participant's sweat rate was or exceeded 1.3 L·hr^−1. […] The first assessment measured the participant's visual, motor, and physical reaction time to a stimulus with the dominant hand. […] Visual reaction time was determined as the amount of time from identifying the stimulus and initiating a reaction by leaving the home button. Motor response time was determined by the time (measured in 1/100's of a second) it took to physically strike the stimulus following the initial visual reaction and was measured as the amount of time from the hand leaving the home button and striking the stimulus. Physical reaction time was determined by the total elapsed time from the introduction of the target stimulus to the physical completion of the task (returning to the home button after striking the stimulus). […]
# [2] = system: male runners; experiment: Serial subtraction test (modified Serial Sevens Test); type: in vivo, human; settings: between trials
# Experimental: (§1) The testing protocol is depicted in FIG. 1. Data collection occurred on four separate occasions. Each session required participants to perform a 60-min run at 75% of their previously measured VO2max. Following this run, all participants performed a run at 90% of their VO2max until volitional exhaustion. All participants performed their first trial (DHY) without any rehydration. During this session the total weight lost during the trial was determined. The fluid loss that occurred during this session was then used to determine the participant's swear rate (L·hr^−1). To continue in the study, participant's sweat rate was or exceeded 1.3 L·hr^−1. During the next three trails participants were provided 250 ml of fluid every 15 minutes in equal amounts. During one of the trials participants consumed only a flavored sports drink (ELECT only), while during the other trials participants consumed the alanine-glutamine supplement (Sustamine™) mixed in the same flavored sports drink at either a low (LD: 300 mg per 500 ml) or high (HD: 1 g per 500 ml) dose.
# A modified version of the original Serial Sevens Test was utilized to analyze cognitive function. […] The number of correct answers and the average time per correct answer was recorded.
# [3] = system: male runners; experiment: Run at 90% VO2max until volitional exhaustion; type: in vivo, human; settings: LD and HD compared to DHY
# Experimental: as §1
# [4] = alanylglutamine compared to glutamine; cited from earlier work
# [5] = Blood measures during the 60-min run (plasma lactate, glucose, osmolality, potassium, sodium, glutamine); type: in vivo, human; settings: at 45-min; HD compared with LD
# Experimental: During each experimental session baseline (BL) blood samples were obtained at preexercise. Additional blood samples were also obtained following 30 min, 45 min and 60 min during the exercise session. All blood samples were obtained using a 20-gauge Teflon cannula placed in a superficial forearm vein using a 3-way stopcock with a male luer lock adapter. The cannula was maintained patent using an isotonic saline solution. BL blood samples were drawn following a 15-min equilibration period prior to exercise. Blood samples were obtained at the same time of day during each session.
# Blood samples were drawn into plain or EDTA treated tubes. Blood samples will be analyzed in triplicate for hematocrit via microcapillary technique and hemoglobin. […]
# Plasma glucose and lactate concentrations were determined in duplicate with an automated analyzer (Analox GM7 enzymatic metabolite analyzer, Analox Instruments USA, Lunenburg, Mass.). Plasma glutamine was analyzed with the use of a spectrophotometer and a commercially available enzymatic kit (Abnova, Jhongli City, Taiwan) per manufacturer's instructions. Serum immunoreactivity values were determined using a BioTekEon spectrophotometer (BioTek, Winooski, Vt., USA). Plasma sodium and potassium concentrations were assessed via ion-selective electrodes (EasyElectrolyte, Medica, Bedford, Mass.). […]
smiles,measurement,setting,value
C[C@H](N)C(=O)N[C@@H](CCC(N)=O)C(=O)O [L-Alanyl-L-Glutamine] (H-Ala-Gln-OH),"change in visual, motor and physical reaction times to a visual stimulus",[1],No significant differences were noted between groups
same,serial subtraction tests and time per successful answer,[2],No significant differences
same,run times at 90% VO2max (time to exhaustion),[3],significantly longer at LD and HD compared to DHY; also recorded: improved time to exhaustion compared to when subjects were dehydrated; also recorded: can enhance time to exhaustion
same,solubility in aqueous solutions,[4],superior
same,stability (heat stability),[4],superior
same,plasma glutamine concentrations,[5],significant difference

# — patent US10369185B2, “Methods and compositions for enhancement of ability to concentrate” (KYOWA HAKKO BIO CO., LTD., priority 2014, dated 2019)
